Source: US20250144247A1, “FORMULATIONS TO ENHANCE THE DELIVERY OF GENE THERAPY VECTORS” (priority 2023, published 2025)

Tested on: human airway epithelial cells (HAE)
Assay: LDH release / integrity of HAE
Format: cell-based
Procedure: GFP images were acquired using a Keyence All-in-one Fluorescence Microscope BZ-X series (Osaka, Japan). 0.33 cm^2 Transwells were imaged at 2× magnification. GFP expression was quantified by flow cytometry as previously reported (36). Briefly, cells were stained with a fixable LIVE/DEAD stain (Thermo Fisher Scientific, Waltham, MA, USA), lifted in Accutase at 37° C. for 30 minutes, and run through an Attune NxT Flow Cytometer (Thermo Fisher Scientific, Waltham, MA, USA). Cells were treated with the Foxp3/Transcription Factor Staining Buffer Set (Thermo Fisher Scientific, Waltham, MA, USA) according to manufacturer's recommendations and stained for 1 hour at 37° C. with the following antibodies: NGFR (345110; 1:600, BioLegend, San Diego, CA, USA), α-tubulin (NB100-69AF405, 1:300, Novus, Centennial, CO, USA) and CD66c (12-0667-42, 1:600, Invitrogen, Waltham, MA). Expression was gated on live cells. Immunofluorescence staining of pig tissue sections was performed using acetylated α-tubulin (D20G3, 1:200, Cell Signaling Technology, Danvers, MA) or cytokeratin 5 (CK5) (Polyl9055, 1:500, San Diego, CA). Primary antibodies were detected using a goat anti-rabbit Alexa 546 secondary anti-body (A-11035, 1:600, Thermo Fisher Scientific, Waltham, MA).
LDH release was quantified according to the manufacturer's recommendations (LDH-Glo Cytotoxicity Assay, Promega, Madison, WI). Briefly, basolateral media from each condition was collected in a 96 well plate. The LDH detection reagents were mixed in a 1:1 ratio and applied to each well and incubated for 30 minutes. Luminescence was recorded using a SpectraMax i3x plate reader.

[Cl-].[Na+] [NaCl, sodium chloride]
effects on HAE integrity in vitro (5% NaCl formulation): negative effects on HAE integrity
LDH release (highest concentrations of NaCl (5-7%)): increased LDH release
NaCl doses with ultimate toxicity (in vitro HAE): > 6%
